Assay results: paper PMC5301048, “Selection and early clinical evaluation of the brain‐penetrant 11β‐hydroxysteroid dehydrogenase type 1 (11β‐HSD1) inhibitor UE2343 (Xanamem™)” (British Journal of Pharmacology, 2017)

Columns and labels:
[1] = system: HPA axis hormones and steroids; assay: Multiple ascending dose study, HPA axis hormones and steroids; format: in vivo; conditions: human, not significant vs placebo
Procedure: A double‐blind, randomized, placebo‐controlled multiple ascending dose study was carried out at Linear Clinical Research Ltd, Nedlands, Australia. Each cohort consisted of eight healthy male subjects. Each subject received UE2343 or placebo twice daily (b.i.d ) (12 hourly) in the fed state for 9 days (Day 1 to Day 9) and once on the morning of Day 10 (19 doses in total). Dose cohorts were 10, 20 and 35 mg. Dose escalation and selection was dependent upon satisfactory review of the blinded safety (up to Day 17 ± 2) and plasma pharmacokinetics (up to Day 12) data from the preceding cohort. Safety, pharmacokinetic and pharmacodynamic assessments were made at pre‐determined time‐points during each part of the study.
Laboratory evaluation of clinical safety parameters was carried out using standard validated methods. Measurement of plasma pharmacodynamic markers [adrenocorticotropic hormone (ACTH), cortisol, 4‐androstenedione, testosterone and dehydroepiandrosterone sulphate (DHEA‐s)] was carried out using commercially available kits. Each method was fully validated prior to analysis. Urinary steroid metabolites were measured according to established methods (Boonen et al., 2013). UE2343 levels in plasma, urine and CSF was determined by LC–MS/MS using fully validated methods.
The data and statistical analysis comply with the recommendations on experimental design and analysis in pharmacology (Curtis et al., 2015). Levels of probability, P < 0.05 were deemed to constitute the threshold for statistical significance. Pharmacokinetic parameters, except Tmax (time of maximum observed drug concentration), are given as mean ± coefficient of variation (CV%). Tmax is given as median ± range. For each of the pharmacodynamic parameters [ACTH, cortisol, adrenal androgens, tetrahydrocortisols (THFs)/tetrahydrocortisone (THE) ratio], the maximum % change from baseline for each subject was subjected to ANOVA. For selected data, an additional covariate factor for the baseline was also included in the ANOVA/analysis of covariance (ANCOVA) model. […]

hERG K+ channel = molecular target: T1, hERG K+ channel (Homo sapiens, UniProt Q12809); assay: hERG inhibition, IonWorks Quattro patch clamp; format: cell-based
T1 construct: Chinese hamster lung cell line stably expressing the full length hERG channel; host or cells: Chinese hamster lung cell line
T1 sequence (Q12809 whole entry): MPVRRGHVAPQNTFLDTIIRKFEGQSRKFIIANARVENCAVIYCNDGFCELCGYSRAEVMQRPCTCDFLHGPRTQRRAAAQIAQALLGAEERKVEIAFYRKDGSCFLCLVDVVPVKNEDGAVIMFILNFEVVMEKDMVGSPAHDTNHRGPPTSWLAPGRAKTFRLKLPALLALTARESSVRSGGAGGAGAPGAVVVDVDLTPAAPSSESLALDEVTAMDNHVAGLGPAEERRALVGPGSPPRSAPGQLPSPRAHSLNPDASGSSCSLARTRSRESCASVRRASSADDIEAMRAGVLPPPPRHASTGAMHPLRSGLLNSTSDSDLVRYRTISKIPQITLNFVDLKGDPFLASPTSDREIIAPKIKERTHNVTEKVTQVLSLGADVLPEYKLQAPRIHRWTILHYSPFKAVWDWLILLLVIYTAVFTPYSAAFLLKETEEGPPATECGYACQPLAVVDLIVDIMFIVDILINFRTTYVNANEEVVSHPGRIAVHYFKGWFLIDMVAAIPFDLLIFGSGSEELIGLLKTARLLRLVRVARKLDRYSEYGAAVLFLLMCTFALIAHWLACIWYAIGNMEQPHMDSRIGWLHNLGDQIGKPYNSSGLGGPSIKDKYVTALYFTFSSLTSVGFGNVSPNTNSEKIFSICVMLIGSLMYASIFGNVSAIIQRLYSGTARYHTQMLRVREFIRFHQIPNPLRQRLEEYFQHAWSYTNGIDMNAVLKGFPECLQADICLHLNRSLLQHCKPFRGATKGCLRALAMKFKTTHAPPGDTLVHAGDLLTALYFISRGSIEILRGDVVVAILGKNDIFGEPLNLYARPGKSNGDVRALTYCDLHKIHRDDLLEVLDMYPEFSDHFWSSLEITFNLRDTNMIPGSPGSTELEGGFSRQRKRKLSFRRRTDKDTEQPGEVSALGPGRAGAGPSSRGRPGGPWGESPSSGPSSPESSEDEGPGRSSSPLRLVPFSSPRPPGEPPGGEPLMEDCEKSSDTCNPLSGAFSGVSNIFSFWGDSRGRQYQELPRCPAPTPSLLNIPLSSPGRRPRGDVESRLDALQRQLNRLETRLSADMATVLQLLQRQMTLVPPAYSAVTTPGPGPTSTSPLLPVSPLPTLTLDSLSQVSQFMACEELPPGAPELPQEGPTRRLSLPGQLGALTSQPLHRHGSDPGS
Procedure: Testing was performed by Essen Instruments, Hertfordshire, UK. Compounds were tested for inhibition of the human ether a go‐go related gene (hERG) K+ channel in a Chinese hamster lung cell line stably expressing the full length hERG channel. Single cell ionic currents were measured in the perforated patch clamp configuration at room temperature using an IonWorks Quattro instrument. Eight‐point concentration–response curves were generated using threefold serial dilutions from the maximum final assay concentration. IC50 values were obtained from a four‐parameter logistic fit of the % inhibition data.

CYP1A2 = molecular target: T2, CYP1A2 (Homo sapiens, UniProt P05177); assay: Cytochrome P450 inhibition, CYP1A2; format: in vitro ADME; conditions: human liver microsomes; read-out: CYP450 isoform 1A2 IC50
T2 construct: tissue Cyprotex Discovery Limited; host or cells: human liver microsomes
T2 sequence (P05177 1-516): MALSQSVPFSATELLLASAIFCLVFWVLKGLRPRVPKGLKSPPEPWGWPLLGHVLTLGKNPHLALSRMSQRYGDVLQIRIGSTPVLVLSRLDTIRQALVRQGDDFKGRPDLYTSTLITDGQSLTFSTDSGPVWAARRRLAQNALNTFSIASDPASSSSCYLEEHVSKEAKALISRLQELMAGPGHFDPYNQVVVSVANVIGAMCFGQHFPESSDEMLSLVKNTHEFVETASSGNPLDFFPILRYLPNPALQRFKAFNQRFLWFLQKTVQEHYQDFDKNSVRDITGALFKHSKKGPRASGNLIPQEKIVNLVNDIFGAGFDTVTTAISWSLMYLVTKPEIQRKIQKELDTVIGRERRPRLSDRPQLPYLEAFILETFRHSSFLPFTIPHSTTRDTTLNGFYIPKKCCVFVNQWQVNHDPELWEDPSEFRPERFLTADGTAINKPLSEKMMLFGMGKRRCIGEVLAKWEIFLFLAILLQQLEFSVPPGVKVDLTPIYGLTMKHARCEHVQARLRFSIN
Procedure: Testing was performed by Cyprotex Discovery Limited, Cheshire, UK. Six test compound concentrations (0.4, 1, 4, 10, 40 and 100 μM; final DMSO concentration 0.25%, final microsome concentration 0.25 mg·mL^−1) were either pre‐incubated for 30 min in the absence and presence of NADPH or underwent a 0 min pre‐incubation with human liver microsomes. At the end of the pre‐incubation period, the probe substrate for each cytochrome P450 (CYP450) isoform (30 μM) and NADPH (1 mM) were then added (final DMSO concentration 0.3%), and the samples were incubated for 5 min at 37°C. Probe substrates were as follows: 1A2 – phenacetin, 2C9 – diclofenac, 2C19 – mephenytoin, 2D6 – dextromethorphan, 3A4 – midazolam and testosterone. Samples were subjected to LC–MS/MS analysis to determine metabolite concentrations. A decrease in the formation of the metabolite compared with vehicle control was used to calculate an IC50 value (test compound concentration which produces 50% inhibition) for each experimental condition.

## O=C(c1csc(-c2cn[nH]c2)c1)N1C2CCC1CC(O)(c1ncccn1)C2 (stereo not drawn) [compound 4]
[1]; 10 mg b.i.d
  mean maximum percentage change in ACTH (from baseline): 222%
[1]; 20 mg b.i.d
  mean maximum percentage change in ACTH (from baseline): 195%
[1]; 35 mg b.i.d
  mean maximum percentage change in ACTH (from baseline): 230%
hERG K+ channel; Chinese hamster lung cells expressing hERG, mean ± SD [n]
  IC50: > 30 µM
hERG K+ channel; up to a concentration of 30 μM, in words
  inhibition of the hERG channel: only marginal inhibition
CYP1A2
  IC50: > 50 µM
